# Target: T1, human PDE2A1 (Homo sapiens, UniProt O00408)
# T1 construct: GST; purchased BPS Bioscience (San Diego, Calif.) 60020; host or cells: insect cells
# Experiment: IMAP FP PDE selectivity panel, human PDE2A1
# Type: biochemical
# Settings: Lab B; read-out: Human PDE2 Ki (nM) Lab B
# Method: Selectivity for PDE2, as compared to other PDE families, was assessed using the IMAP® technology. Human PDE10A2 enzyme was prepared from cytosolic fractions of transiently transfected HEK cells.
# Assays for PDE 1 through 11 were performed in parallel at room temperature in 384-well microtiter plates with an incubation volume of 20.2 μL. Solutions of test compounds were prepared in DMSO and serially diluted with DMSO to yield 30 μL of each of ten solutions differing by 3-fold in concentration, at 32 serial dilutions per plate. […] A Labcyte POD 810 (Labcyte, Sunnyvale, Calif.) was used to dispense 200 nL from each well of the titration plate to make eleven copies of the assay plate for each titration, one copy for each PDE enzyme. A solution of each enzyme (dilution from aliquots, sufficient to produce 20% substrate conversion) and a separate solution of FAM-labeled cAMP or FAM-labeled cGMP from Molecular Devices (Sunnyvale, Calif., product # R7506 or cGMP#R7508), at a final concentration of 50 nM were made in the assay buffer (10 mM Tris HCl, pH 7.2, 10 mM MgCl2, 0.05% NaN3 0.01% Tween-20, and 1 mM DTT). Note that the substrate for PDE2 is 50 nM FAM cAMP containing 1000 nM of cGMP. The enzyme and the substrate were then added to the assay plates in two consecutive additions of 10 μL and then shaken to mix. The reaction was allowed to proceed at room temperature for 60 minutes. A binding solution was then made from the kit components, comprised of 80% Solution A, 20% Solution B and binding reagent at a volume of 1/600 the total binding solution. The enzymatic reaction was stopped by addition of 60 μL of the binding solution to each well of the assay plate. The plates were sealed and shaken for 10 seconds. The plates were incubated at room temperature for one hour, then the parallel and perpendicular fluorescence was measured using a Tecan Genios Pro plate reader (Tecan, Switzerland). […] The intrinsic PDE2 inhibitory activity of a compound which may be used in accordance with the present invention may be determined by these assays.
# T1 sequence (O00408 1-920 isoform O00408-2): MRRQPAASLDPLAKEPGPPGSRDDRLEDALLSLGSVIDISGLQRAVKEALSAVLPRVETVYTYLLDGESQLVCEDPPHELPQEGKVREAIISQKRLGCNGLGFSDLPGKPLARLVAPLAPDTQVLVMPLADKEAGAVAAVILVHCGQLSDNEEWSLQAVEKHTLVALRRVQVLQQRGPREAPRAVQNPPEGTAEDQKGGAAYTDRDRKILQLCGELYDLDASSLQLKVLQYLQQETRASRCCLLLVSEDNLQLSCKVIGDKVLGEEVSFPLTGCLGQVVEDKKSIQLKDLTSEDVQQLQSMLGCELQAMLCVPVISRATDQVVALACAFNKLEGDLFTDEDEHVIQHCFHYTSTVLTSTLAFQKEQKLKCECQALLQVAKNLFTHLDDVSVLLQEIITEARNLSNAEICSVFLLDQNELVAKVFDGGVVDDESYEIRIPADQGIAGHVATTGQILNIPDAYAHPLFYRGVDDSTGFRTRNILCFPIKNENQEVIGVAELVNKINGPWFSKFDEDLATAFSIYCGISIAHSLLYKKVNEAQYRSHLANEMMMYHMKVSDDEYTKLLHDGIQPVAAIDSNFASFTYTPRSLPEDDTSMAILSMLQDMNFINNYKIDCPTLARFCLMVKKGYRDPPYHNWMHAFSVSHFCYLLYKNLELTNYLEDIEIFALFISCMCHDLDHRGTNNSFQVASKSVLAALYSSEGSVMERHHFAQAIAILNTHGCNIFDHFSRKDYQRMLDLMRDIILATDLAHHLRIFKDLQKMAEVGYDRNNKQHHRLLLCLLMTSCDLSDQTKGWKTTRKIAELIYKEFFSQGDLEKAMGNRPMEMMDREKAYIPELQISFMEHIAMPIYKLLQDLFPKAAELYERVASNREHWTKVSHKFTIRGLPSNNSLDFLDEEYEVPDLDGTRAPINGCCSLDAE
compound,measurement,value
"Cc1cc(NC(c2ccc(C(F)F)cc2)C(C)(C)O)n2ncnc2n1 (single isomer, unassigned) [Example 108, (1S or R)-1-[4-(Difluoromethyl)phenyl]-2-methyl-1-[(5-methyl [1,2,4]triazolo [1,5-a]pyrimidin-7-yl)amino] propan-2-ol]",Ki,49 nM
"(R or S)-2,2-Dimethyl-3-(3-methyl-4-(trifluoromethoxy)phenyl)-3-(5-methyl-[1,2,4]triazolo[1,5-a]pyrimidin-7-ylamino)propan-1-ol [Example 231]",Ki,7.3 nM
"CC(C)(O)[C@@H](Nc1cncc2ncnn12)c1ccc(OC(F)(F)F)c(F)c1 [Example 286, (1S)-1-[3-Fluoro-4-(trifluoromethoxy)phenyl]-2-methyl-1-([1,2,4]triazolo[1,5-a]pyrazin-5-ylamino)propan-2-ol]",Ki,209 nM
"COc1cc(NC2(c3ccc(C(F)(F)F)c(F)c3)CC2)n2ncnc2n1 [Example 235, N-(1-(3-Fluoro-4-(trifluoromethyl)phenyl)cyclopropyl)-5-methoxy-[1,2,4]triazolo [1,5-a]pyrimidin-7-amine]",Ki,18 nM
"Cc1cc(NC2(c3ccc(SC(F)(F)F)c(F)c3)CC2)n2ncnc2n1 [Example 63, N-(1-{3-Fluoro-4-[(trifluoromethyl)sulfanyl]phenyl}cyclopropyl)-5-methyl[1,2,4]triazolo[1,5-a] pyrimidin-7-amine]",Ki,33 nM
"CC(C)(O)C(Nc1cc(C(F)F)nc2ncnn12)c1ccc(C(F)(F)F)c(F)c1 (single isomer, unassigned) [Example 227, (R)- or (S)-1-(5-(Difluoromethyl)-[1,2,4]triazolo [1,5-a]pyrimidin-7-ylamino)-1-(3-fluoro-4-(trifluoromethyl)phenyl)-2-methylpropan-2-ol]",Ki,7.6 nM
"Cc1cc(N[C@H](C)c2ccc(SC(F)(F)F)c(F)c2)n2ncnc2n1 [Example 11, N-[(1R)-1-{3-Fluoro-4-[(trifluoromethyl)sulfanyl]phenyl}ethyl]-5-methyl[1,2,4]triazolo [1,5-a]pyrimidin-7-amine]",Ki,18 nM
"Cc1cc(NC(c2ccc(C(C)(C)C)cc2)C(C)(C)O)n2ncnc2n1 (single isomer, unassigned) [Example 106]",Ki,> 1240 nM
"CCC(O)(CC)C(Nc1cc(C(F)(F)F)nc2ncnn12)c1ccc(C(F)(F)F)c(F)c1 (single isomer, unassigned) [Example 219, (R)- or (S)-3-((3-Fluoro-4-(trifluoromethyl)phenyl)(5-(trifluoromethyl)-[1,2,4]triazolo [1,5-a]pyrimidin-7-ylamino)methyl) pentan-3-ol]",Ki,252 nM
"Cc1cc(N[C@@H](c2ccc(C(F)(F)F)cc2)[C@H](C)O)n2ncnc2n1 [Example 90, (1S,2S)-1-[(5-Methyl[1,2,4]triazolo[1,5-a]pyrimidin-7-yl)amino]-1-[4-(trifluoromethyl)phenyl]propan-2-ol]",Ki,~1790 nM
"CNc1cc(N[C@@H](c2ccc(C(F)(F)F)c(F)c2)C(C)(C)C)n2ncnc2n1 [Example 241, (R)-N^7-(1-(3-Fluoro-4-(trifluoromethyl)phenyl)-2,2-dimethylpropyl)-N^5-methyl-[1,2,4]triazolo [1,5-a]pyrimidine-5,7-diamine]",Ki,375 nM
"Cc1cc(N[C@@H](C)c2ccc(C(F)(F)F)cc2)n2ncnc2n1 [Example 2, 5-Methyl-N-{(1S)-1-[4-(trifluoromethyl)phenyl]ethyl}[1,2,4]triazolo[1,5-a]pyrimidin-7-amine]",Ki,~1540 nM
"Cc1cc(N[C@](C)(c2ccc(OC(F)(F)F)cc2)C(C)(C)O)n2ncnc2n1 [Example 154, (3R)-2-Methyl-3-[(5-methyl[1,2,4]triazolo[1,5-a]pyrimidin-7-yl)amino]-3-[4-(trifluoromethoxy)phenyl]butan-2-ol]",Ki,> 2960 nM
"COCC(Nc1cc(C(F)(F)F)nc2ncnn12)c1ccc(C(F)(F)F)c(F)c1 (single isomer, unassigned) [Example 217, (R)- or (S)-N-(1-(3-Fluoro-4-(trifluoromethyl)phenyl)-2-methoxyethyl)-5-(trifluoromethyl)-[1,2,4]triazolo [1,5-a]pyrimidin-7-amine]",Ki,329 nM
"Cc1cc(NC(c2ccc(OC(F)(F)F)cc2C)C(C)(C)O)n2ncnc2n1 (single isomer, unassigned) [Example 129, (1R or S)-2-Methyl-1-[(5-methyl[1,2,4]triazolo[1,5-a]pyrimidin-7-yl)amino]-1-[2-methyl-4-(trifluoromethoxy)phenyl]propan-2-ol]",Ki,21 nM
"Cc1cc(N[C@@H](c2ccc(OC(F)F)cc2)C(C)C)n2ncnc2n1 [Example 23, N-{(1R)-1-[4-(Difluoromethoxy)phenyl]-2-methylpropyl}-5-methyl [1,2,4]triazolo[1,5-a]pyrimidin-7-amine]",Ki,45 nM
"Cc1cc(N[C@@H](c2ccc(C3CC3)cc2)C(C)(C)C)n2ncnc2n1 [Example 30, N-[(1R)-1-(4-Cyclopropyl-phenyl)-2,2-dimethylpropyl]-5-methyl[1,2,4]triazolo[1,5-a] pyrimidin-7-amine]",Ki,4.4 nM
"CC(O)c1cc(NC2(c3ccc(C(F)(F)F)c(F)c3)CC2)n2ncnc2c1 (centres unmarked) [Example 275, 1-(5-((1-(3-Fluoro-4-(trifluoromethyl)phenyl)cyclopropyl)amino)-[1,2,4]triazolo[1,5-a]pyridin-7-yl)ethanol]",Ki,111 nM
"Cc1cc(NC2(c3ccc(C(F)(F)F)c(F)c3)CC2)n2nc(N)nc2n1 [Example 255, N^7-{1-[3-Fluoro-4-(trifluoromethyl)phenyl]cyclopropyl}-5-methyl[1,2,4]triazolo[1,5-a]pyrimidine-2,7-diamine]",Ki,22 nM
"CC(C)(O)C(Nc1cc(C(F)F)nc2ncnn12)c1ccc(OC(F)(F)F)cc1F (single isomer, unassigned) [Example 185, (1S or R)-{[5-(Difluoromethyl) [1,2,4]triazolo [1,5-a]pyrimidin-7-yl]amino}-1-[2-fluoro-4-(trifluoromethoxy)phenyl]-2-methylpropan-2-ol]",Ki,10 nM
"C[C@@H](Nc1cc(CO)cc2ncnn12)c1ccc(OC(F)(F)F)cc1 [Example 271, [5-({(1R)-1-[4-(Trifluoromethoxy)phenyl]ethyl}amino)[1,2,4]triazolo[1,5-a]pyridin-7-yl] methanol]",Ki,530 nM
"Cc1cc(NC(C)(C)c2ccc(SC(F)(F)F)c(F)c2)n2ncnc2n1 [Example 50, N-(1-{3-Fluoro-4-[(trifluoromethyl)sulfanyl]phenyl}-1-methylethyl)-5-methyl[1,2,4]triazolo[1,5-a] pyrimidin-7-amine]",Ki,182 nM
"Cc1cc(N[C@@H](c2ccc(C(F)(F)F)c(F)c2)C(C)(C)C)n2nc(CCO)nc2n1 [Example 250, (R)-2-(7-(1-(3-Fluoro-4-(trifluoromethyl)phenyl)-2,2-dimethylpropylamino)-5-methyl-[1.2.4]triazolo[1,5-a]pyrimidin-2-yl)ethanol]",Ki,57 nM
"Cc1cc(N[C@H](C)c2ccc(S(F)(F)(F)(F)F)cc2)n2ncnc2n1 [Example 12, 5-Methyl-N-{(1R)-1-[4-(pentafluoro-λ^6-sulfanyl)phenyl)ethyl} [1,2,4]triazolo[1,5-a]pyrimidin-7-amine]",Ki,68 nM
"CC(C)(O)C(Nc1cc(C(F)(F)F)nc2ncnn12)c1ccc(C(F)(F)F)cc1F (single isomer, unassigned) [Example 173, (1S or R)-1-[2-Fluoro-4-(trifluoromethyl)phenyl]-2-methyl-1-{[5-(trifluoromethyl) [1,2,4]triazolo [1,5-a]pyrimidin-7-yl]amino} propan-2-ol]",Ki,> 2960 nM
"Fc1cc(C2(Nc3cc(C(F)(F)C(F)(F)F)nc4ncnn34)CC2)ccc1C(F)(F)F [Example 74, N-{1-[3-Fluoro-4-(trifluoromethyl)phenyl]cyclopropyl}-5-(pentafluoroethyl) [1,2,4]triazolo[1,5-a]pyrimidin-7-amine]",Ki,109 nM
"Cc1cc(N[C@@H](c2ccc(C3CC3)cc2F)C(C)C)n2ncnc2n1 [Example 25, N-[(1R)-1-(4-Cyclopropyl-2-fluorophenyl)-2-methylpropyl]-5-methyl[1,2,4]triazolo[1,5-a] pyrimidin-7-amine]",Ki,9.9 nM
"Cc1cc(N[C@@H](c2ccc(C(F)(F)F)cc2)C(C)(C)O)n2ncnc2n1 [Example 94, (1S)-2-Methyl-1-[(5-methyl [1,2,4]triazolo[1,5-a]pyrimidin-7-yl)amino]-1-[4-(trifluoromethyl)phenyl]propan-2-ol]",Ki,17 nM
"Cc1cc(NC(c2ccc(CC(F)(F)F)cc2)C(C)(C)O)n2ncnc2n1 (single isomer, unassigned) [Example 118, (1S or R)-2-Methyl-1-[(5-methyl [1,2,4]triazolo [1,5-a]pyrimidin-7-yl)amino]-1-[4-(2,2,2-trifluoroethyl)phenyl]propan-2-ol]",Ki,> 2960 nM
